This note sets out measurements from ChEMBL document CHEMBL3351426, “Development of new estradiol-cationic lipid hybrids: ten-carbon twin chain cationic lipid is a more suitable partner for estradiol to elicit better anticancer activity” (Eur J Med Chem, 2014).

Structures are written as SMILES. Active and inactive are the calls of the source. No cut-off for these calls is given here.

Data set [1] concerns MCF7. Briefly: Antiproliferative activity human ER-positive MCF7 cells after 2 days by MTT assay. Particulars: MCF7, 48 h. In kind it is functional, cell-based. Background: Tetrazolium assays rely on reduction of a dye to a coloured formazan, in cell work by metabolically active cells.
Data set [2] concerns MDA-MB-231. Briefly: Antiproliferative activity human ER-negative MDA-MB-231 cells after 2 days by MTT assay. In kind it is functional, cell-based. Particulars: MDA-MB-231, 48 h.
Data set [3] is described as follows: Antiproliferative activity mouse B16F10 cells after 2 days by MTT assay. In kind it is functional, cell-based. The following applies: B16-F10, 48 h.
A short description of data set [4]: Antiproliferative activity human MIAPaCa2 cells after 2 days by MTT assay. The data set is classed as functional, cell-based. The following applies: MIA PaCa-2, 48 h.
For data set [5], the system named is CHO. Kind of data set: Antiproliferative activity against CHO cells after 2 days by MTT assay. Particulars: Cricetulus griseus, 48 h. The data set is classed as cell-based.
Data set [6] in a line: Antiproliferative activity mouse NIH/3T3 cells after 2 days by MTT assay. The following applies: NIH3T3, 48 h. The data set is classed as cell-based.
The test system of data set [7] is B16-F10. Briefly: Antitumor activity against mouse B16F10 cells inoculated in C57BL6J mouse assessed as tumor regression at 9.15 mg/kg, ip for 9 days. In kind it is functional, organism-based. Also noted: dose 9.15 mg/kg.
In data set [8] the test system is B16-F10. Kind of data set: Induction of apoptosis in mouse B16F10 cells assessed as necrotic cells at 5 uM after 24 hrs by FITC-annexin V/PI staining based flow cytometry (RVB = 5.12%). The data set is classed as functional. In general terms: Flow cytometry measures light scatter and fluorescence of single cells or particles in a stream.
Data set [9] concerns B16-F10. Kind of data set: Induction of apoptosis in mouse B16F10 cells assessed as late apoptotic cells at 5 uM after 24 hrs by FITC-annexin V/PI staining based flow cytometry (RVB = 4.94%). In kind it is functional.
Data set [10] relates to B16-F10. Briefly: Induction of apoptosis in mouse B16F10 cells assessed as early apoptotic cells at 5 uM after 24 hrs by FITC-annexin V/PI staining based flow cytometry (RVB = 0.36%). In kind it is functional.
Data set [11] concerns B16-F10. Briefly: Induction of apoptosis in mouse B16F10 cells assessed as viable cells at 5 uM after 24 hrs by FITC-annexin V/PI staining based flow cytometry (RVB = 89.58%). Particulars: B16-F10, 24 h, read-out: Activity. The data set is classed as functional.
The subject of data set [12] is MDA-MB-231. Kind of data set: Induction of apoptosis in human ER-negative MDA-MB-231 cells assessed as necrotic cells at 5 uM after 24 hrs by FITC-annexin V/PI staining based flow cytometry (RVB = 2.21%). The data set is classed as functional.
For data set [13], the system named is MDA-MB-231. Briefly: Induction of apoptosis in human ER-negative MDA-MB-231 cells assessed as late apoptotic cells at 5 uM after 24 hrs by FITC-annexin V/PI staining based flow cytometry (RVB = 0.99%). In kind it is functional.
Data set [14] relates to MDA-MB-231. Briefly: Induction of apoptosis in human ER-negative MDA-MB-231 cells assessed as early apoptotic cells at 5 uM after 24 hrs by FITC-annexin V/PI staining based flow cytometry (RVB = 1.15%). The data set is classed as functional.
For data set [15], the system named is MDA-MB-231. Briefly: Induction of apoptosis in human ER-negative MDA-MB-231 cells assessed as viable cells at 5 uM after 24 hrs by FITC-annexin V/PI staining based flow cytometry (RVB =95.66%). The data set is classed as functional. The following applies: MDA-MB-231, 24 h, read-out: Activity.
Data set [16] has as its system MCF7. Briefly: Induction of apoptosis in human ER-positive MCF7 cells assessed as necrotic cells at 5 uM after 24 hrs by FITC-annexin V/PI staining based flow cytometry (RVB = 3.24%). The data set is classed as functional.
Data set [17] has as its system MCF7. Kind of data set: Induction of apoptosis in human ER-positive MCF7 cells assessed as late apoptotic cells at 5 uM after 24 hrs by FITC-annexin V/PI staining based flow cytometry (RVB = 3.68%). The data set is classed as functional.
In data set [18] the test system is MCF7. Kind of data set: Induction of apoptosis in human ER-positive MCF7 cells assessed as early apoptotic cells at 5 uM after 24 hrs by FITC-annexin V/PI staining based flow cytometry (RVB = 0.86%). The data set is classed as functional.
In data set [19] the test system is MCF7. Briefly: Induction of apoptosis in human ER-positive MCF7 cells assessed as viable cells at 5 uM after 24 hrs by FITC-annexin V/PI staining based flow cytometry (RVB = 92.22%). In kind it is functional. The following applies: MCF7, 24 h, read-out: Activity.
In data set [20] the test system is RAW264.7. Kind of data set: Induction of apoptosis in mouse RAW264.7 cells assessed as necrotic cells at 5 uM after 24 hrs by FITC-annexin V/PI staining based flow cytometry (RVB = 0.29%). In kind it is cell-based. The following applies: raw264.7, 24 h.
Data set [21] deals with RAW264.7. Briefly: Induction of apoptosis in mouse RAW264.7 cells assessed as late apoptotic cells at 5 uM after 24 hrs by FITC-annexin V/PI staining based flow cytometry (RVB = 0.51%). The data set is classed as cell-based. The following applies: raw264.7, 24 h.
The subject of data set [22] is RAW264.7. Briefly: Induction of apoptosis in mouse RAW264.7 cells assessed as early apoptotic cells at 5 uM after 24 hrs by FITC-annexin V/PI staining based flow cytometry (RVB = 0.69%). The data set is classed as cell-based. Particulars: raw264.7, 24 h.
A short description of data set [23]: Induction of apoptosis in mouse RAW264.7 cells assessed as viable cells at 5 uM after 24 hrs by FITC-annexin V/PI staining based flow cytometry (RVB = 98.51%). In kind it is cell-based. Particulars: read-out: Activity.
Data set [24] has as its system CHO. Briefly: Induction of apoptosis in CHO cells assessed as necrotic cells at 5 uM after 24 hrs by FITC-annexin V/PI staining based flow cytometry (RVB = 0.79%). Particulars: chinese hamster. The data set is classed as cell-based, Cricetulus griseus.
Data set [25] relates to CHO. Briefly: Induction of apoptosis in CHO cells assessed as late apoptotic cells at 5 uM after 24 hrs by FITC-annexin V/PI staining based flow cytometry (RVB = 0.00%). The data set is classed as cell-based, Cricetulus griseus. The following applies: chinese hamster.
In data set [26] the test system is CHO. Kind of data set: Induction of apoptosis in CHO cells assessed as early apoptotic cells at 5 uM after 24 hrs by FITC-annexin V/PI staining based flow cytometry (RVB = 0.00%). In kind it is cell-based, Cricetulus griseus. The following applies: chinese hamster.
Data set [27] in a line: Induction of apoptosis in CHO cells assessed as viable cells at 5 uM after 24 hrs by FITC-annexin V/PI staining based flow cytometry (RVB = 99.21%). Particulars: chinese hamster, read-out: Activity. The data set is classed as cell-based, Cricetulus griseus.
In data set [28] the test system is MCF7. Kind of data set: Cell cycle arrest in human ER-positive MCF7 cells assessed as accumulation at sub-G0 phase at 5 to 10 uM after 24 hrs by PI staining based flow cytometry. The data set is classed as functional.
Data set [29] can be described thus: Cell cycle arrest in mouse B16F10 cells assessed as accumulation at sub-G0 phase at 5 to 10 uM after 24 hrs by PI staining based flow cytometry. The data set is classed as functional. The following applies: B16-F10.
Data set [30] relates to MCF7. Kind of data set: Cell cycle arrest in human ER-positive MCF7 cells assessed as reduction in accumulation at G0-G1 phase 5 to 10 uM after 24 hrs by PI staining based flow cytometry. The data set is classed as functional.
The nature of data set [31]: Cell cycle arrest in mouse B16F10 cells assessed as reduction in accumulation at G0-G1 phase 5 to 10 uM after 24 hrs by PI staining based flow cytometry. In kind it is functional. The following applies: B16-F10.
Data set [32] relates to B16-F10. Briefly: Antitumor activity against mouse B16F10 cells inoculated in C57BL6J mouse assessed as tumor regression at 10 mg/kg, ip for 9 days. In kind it is functional, organism-based. Also noted: dose 10 mg/kg.
Data set [33] has as its system B16-F10. Briefly: Antitumor activity against mouse B16F10 cells expressing ER inoculated in C57BL6J mouse assessed as tumor regression at 10 mg/kg, ip for 9 days. The data set is classed as functional, organism-based. More on the design: dose 10 mg/kg.
Data set [34] deals with B16-F10. Briefly: Antitumor activity against mouse B16F10 cells expressing ER inoculated in C57BL6J mouse assessed as tumor regression at 10 mg/kg, ip for 9 days in presence of estradiol. In kind it is functional, organism-based. More on the design: dose 10 mg/kg.

On to `CCCCCCCCCCCC[N+](C)(CCCCCCCCCCCC)CCC[C@]1(O)CC[C@H]2[C@@H]3CCc4cc(O)ccc4[C@H]3CC[C@@]21C`, for which the IC50 with MCF7 [1] came to 6.23 µM; in the data set on MDA-MB-231 [2], 6.02 µM; in data set [3], 5.79 µM; in data set [4] it was 7.36 µM; in the data set with CHO [5], 90.8 µM; in data set [6], 85.4 µM.

Regarding `CCCCCCCCCCCCCC[N+](C)(CCCCCCCCCCCCCC)CCC[C@]1(O)CC[C@H]2[C@@H]3CCc4cc(O)ccc4[C@H]3CC[C@@]21C`, the concentration for half-maximal inhibition (IC50) is 17.4 µM with MCF7 [1]; 38.7 µM with MDA-MB-231 [2]; 32.3 µM in data set [3]; 42.5 µM in [4]; over 100 µM in the data set on CHO [5]; 80.3 µM in data set [6].

Take `CCCCCCCC[N+](C)(CCCCCCCC)CCC[C@]1(O)CC[C@H]2[C@@H]3CCc4cc(O)ccc4[C@H]3CC[C@@]21C`: the IC50 in the data set with MCF7 [1] worked out at 5.34 µM; in the data set on MDA-MB-231 [2] it was 5.62 µM; in data set [3], 6.48 µM; in [4], 6.83 µM; in the data set on CHO [5], 45.3 µM; in data set [6], 51 µM. Moreover, the inhibition result with B16-F10 [7] was “Active”.

Take `C[C@]12CC[C@@H]3c4ccc(O)cc4CC[C@H]3[C@@H]1CC[C@@H]2O` [ESTRADIOL]: the IC50 was 27.4 µM in the data set on MCF7 [1]; 33.5 µM in the data set with MDA-MB-231 [2]; 39.8 µM in data set [3]; 42.9 µM in [4]; over 100 µM in the data set with CHO [5]; over 100 µM in [6].

On to `CCCCCCCCCC[N+](C)(CCCCCCCCCC)CCC[C@]1(O)CC[C@H]2[C@@H]3CCc4cc(O)ccc4[C@H]3CC[C@@]21C.[Cl-]`, for which the concentration for half-maximal inhibition (IC50) stood at 1.36 µM in the data set on MCF7 [1]; 1.14 µM with MDA-MB-231 [2]; 0.5 µM in [3]; 0.46 µM in data set [4]; 81.7 µM in the data set on CHO [5]; 47.7 µM in [6]. Also, the Activity amounted to 2.87% with B16-F10 [8]; 67.86% with B16-F10 [9]; 2.53% in the data set on B16-F10 [10]; 3.39% with MDA-MB-231 [12]; 50.63% with MDA-MB-231 [13]; 21.65% in the data set on MDA-MB-231 [14]. Moreover, the Activity in the data set with MCF7 [16] is 1.4%; with MCF7 [17] it was 45.94%; with MCF7 [18], 1.62%; in the data set on RAW264.7 [20] it was 0.1%; in the data set with RAW264.7 [21], 0.27%; in the data set with RAW264.7 [22], 0.55%. For the same compound, the Activity in the data set on CHO [24] is recorded as 0.86%; in the data set with CHO [25] it was 0.23%; in the data set on CHO [26] it was 0.56%. The viability at 5 µM with B16-F10 [11] is 26.7%; in the data set with MDA-MB-231 [15], 24.3%; in the data set on MCF7 [19], 51%. Further, the viability at 24 h, 5 µM in [23] turned out to be 99.1%; in data set [27], 98.3%. Further, the outcome (in the data set with MCF7 [28]; in data set [29]; in the data set with MCF7 [30]; in data set [31]) was Active. Further, the inhibition result in the data set with B16-F10 [32] and with B16-F10 [33] was “Active” in each case. For the same compound, the inhibition entry in the data set with B16-F10 [34] was “inactive”.

For the compound `CC/C(=C(\c1ccccc1)c1ccc(OCCN(C)C)cc1)c1ccccc1` [TAMOXIFEN], the IC50 with MCF7 [1] is 4.67 µM; in the data set on MDA-MB-231 [2], 39 µM; in data set [3], 64.9 µM; in data set [4], 33.1 µM; in the data set with CHO [5], over 100 µM; in data set [6], over 100 µM.

`CCCCCC[N+](C)(CCCCCC)CCC[C@]1(O)CC[C@H]2[C@@H]3CCc4cc(O)ccc4[C@H]3CC[C@@]21C`: the IC50 in the data set with MCF7 [1] is 7.85 µM; in the data set with MDA-MB-231 [2] it was 6.78 µM; in data set [3] it was 6.56 µM; in data set [4], 8.51 µM; with CHO [5] it was 60.4 µM; in [6] it was 45.8 µM.

What is called IC50 is the concentration at which inhibition is half-maximal.
